Measured values published in US11707447B1.
Where “and” joins values, the source holds several entries; their conditions need not be identical. Equal entries are not always repeated. Entries after “also recorded” stand apart in the source; their conditions may differ.

Experiment: Mouse pharmacokinetic (PK) evaluation of drug metabolism to psilocin
Conditions: for AUC(0-inf): AUC0-inf (parent compound in plasma); for half-life: Apparent t1/2 (parent compound in plasma); for clearance: CL (parent compound); for MRT inf: MRT0-inf (parent compound)
[1] = male, C57Bl/6, mouse, plasma, iv, 1 mg/kg, 1 mg/kg i.v., individual mice
[2] = male, C57Bl/6, mouse, plasma, iv, 1 mg/kg, 1 mg/kg i.v., mean

With `CN(C)CCc1c[nH]c2cccc(OC(=O)SCc3ccccc3)c12` [E(VI)] the “Plasma concentration of administered (parent) compound” value (“Plasma concentration of administered” for short) (1 mg/kg i.v., 5 min, individual mice) was 3.20 ng/mL and 59.0 ng/mL and 11.1 ng/mL, the “Plasma concentration of administered” value (1 mg/kg i.v., 0.25 h, individual mice) was 72.1 ng/mL and 110 ng/mL and 7.79 ng/mL and the “Plasma concentration of administered” value (1 mg/kg i.v., 0.5 h, individual mice) was 13.1 ng/mL and 9.29 ng/mL and 1.03 ng/mL. For the same compound, the “Plasma concentration of administered” value (1 mg/kg i.v., 1 h, individual mice) was 5.84 ng/mL and No Peak, the “Plasma concentration of administered” value (1 mg/kg i.v., 2 h, individual mice) was 0.594 ng/mL and No Peak and the “Plasma concentration of administered” value (1 mg/kg i.v., 4 h, individual mice) was “BLQ (2×) and No Peak”. For the same compound, the “Plasma concentration of administered” value (1 mg/kg i.v., 6 h, individual mice) was “No Peak (2×) and BLQ”, the “Plasma concentration of administered” value (1 mg/kg i.v., 8 h, individual mice) was “No Peak” and the “AUC0-inf (parent compound in plasma)” value (1 mg/kg i.v., individual mice) was 35.5 ng·h/mL. The “AUC0-tlast (parent compound in plasma)” value (1 mg/kg i.v., individual mice) was 20.4 ng·h/mL and 35.2 ng·h/mL and 3.40 ng·h/mL, the “AUC0-tlast/Dose (parent compound in plasma)” value (1 mg/kg i.v., individual mice) was 20.4 kg·ng·h/mL/mg and 35.2 kg·ng·h/mL/mg and 3.40 kg·ng·h/mL/mg and the “Apparent t1/2 (parent compound in plasma)” value (1 mg/kg i.v., individual mice) was 21.9 min. The “C0 (parent compound in plasma)” value (1 mg/kg i.v., individual mice) was 3.20 ng/mL and 59.0 ng/mL and 13.2 ng/mL, the “CL (parent compound)” value (1 mg/kg i.v., individual mice) was 469.32 mL/min/kg and the “MRT0-inf (parent compound)” value (1 mg/kg i.v., individual mice) was 21.6 min. For the same compound, the “Vss (parent compound)” value (1 mg/kg i.v., individual mice) was 23.899 L/kg and 10.146 L/kg, the “AUC0-tlast/Dose (parent compound in plasma)” value (1 mg/kg i.v., mean ± SD) was 19.7 ± 15.9 kg·ng·h/mL/mg and the “detection of administered compound in plasma (in words)” value (1 mg/kg oral) was “neither B(II) nor E(VI) were detected in plasma”. For the same compound, the “Plasma concentration of psilocin” value (1 mg/kg oral of administered compound, 8 h, individual mice) was “BLQ”, the “Plasma concentration of psilocin” value (1 mg/kg oral of administered compound, 24 h, individual mice) was “No Peak” and the “Plasma concentration of psilocin” value (3 mg/kg oral of administered compound, 24 h, individual mice) was “No Peak (2×) and BLQ”. The “Plasma concentration of psilocin” value (10 mg/kg oral of administered compound, 24 h, individual mice) was “BLQ”, the concentration at 5 min (male, C57Bl/6, mouse, plasma, intravenous, 1 mg/kg, Plasma concentration of administered (parent) compound, 1 mg/kg i.v., 5 min, mean ± SD) was 24.4 ± 30.2 ng/mL and the concentration at 0.25 h (male, C57Bl/6, mouse, plasma, intravenous, 1 mg/kg, Plasma concentration of administered (parent) compound, 1 mg/kg i.v., 0.25 h, mean ± SD) was 63.3 ± 51.7 ng/mL. For the same compound, the concentration at 0.5 h (male, C57Bl/6, mouse, plasma, intravenous, 1 mg/kg, Plasma concentration of administered (parent) compound, 1 mg/kg i.v., 0.5 h, mean ± SD) was 7.81 ± 6.17 ng/mL, the concentration at 1 h (male, C57Bl/6, mouse, plasma, intravenous, 1 mg/kg, Plasma concentration of administered (parent) compound, 1 mg/kg i.v., 1 h, individual mice) was 3.14 ng/mL and the concentration at 1 h (male, C57Bl/6, mouse, plasma, intravenous, 1 mg/kg, Plasma concentration of administered (parent) compound, 1 mg/kg i.v., 1 h, mean) was 4.49 ng/mL. It also gave a concentration at 2 h (male, C57Bl/6, mouse, plasma, intravenous, 1 mg/kg, Plasma concentration of administered (parent) compound, 1 mg/kg i.v., 2 h, individual mice) of 0.776 ng/mL, a concentration at 2 h (male, C57Bl/6, mouse, plasma, intravenous, 1 mg/kg, Plasma concentration of administered (parent) compound, 1 mg/kg i.v., 2 h, mean) of 0.685 ng/mL and an AUC(0-inf) [1] of 20.8 ng·h/mL. It also gave an AUC(0-inf) [2] of 28.2 ng·h/mL, an AUC(0-t) (male, C57Bl/6, mouse, plasma, iv, 1 mg/kg, AUC0-tlast (parent compound in plasma), 1 mg/kg i.v., mean ± SD) of 19.7 ± 15.9 ng·h/mL and a half-life [1] of 22.9 min. It also gave a half-life (male, C57Bl/6, mouse, plasma, iv, 1 mg/kg, 1 mg/kg i.v., mean ± SD) of 22.4 ± 0.708 min, a C0 (male, C57Bl/6, mouse, plasma, iv, 1 mg/kg, C0 (parent compound in plasma), 1 mg/kg i.v., mean ± SD) of 25.1 ± 29.7 ng/mL and a clearance [1] of 801 mL/min/kg. For the same compound, the clearance [2] was 635 mL/min/kg, the MRT inf [1] was 29.8 min and the MRT inf [2] was 25.7 min. The Vd (male, C57Bl/6, mouse, plasma, iv, 1 mg/kg, Vss (parent compound), 1 mg/kg i.v., mean) was 17 L/kg and the “detectability of administered compound in plasma (in words)” value (oral vs i.v. dosing) was “did not yield any detectable levels of E(VI); also recorded: never detected at any timepoint”.
